# Assay: gradient 5% acetonitrile 3 min, to 50% in 2 min, to 85% in 15 min, held 3 min, 100 µL/min
# Settings: column: Zorbax Extend-C18 2.1 x 50 mm; eluents: water / acetonitrile, 0.1% formic acid
# Outline: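 The mobile phases were water and acetonitrile, each with 0.1% formic acid, pumped at 100 μL/min through a Zorbax Extend-C18 column (2.1 × 50 mm, 1.8 μm). Pure standards were injected as mixtures of ~100 molecules and detected by a quadrupole time-of-flight mass spectrometer in positive and negative ionization mode. Retention time came from computationally picked adduct peaks, each inspected by hand.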
row,Compound,RP-LC retention time
1,CCCn1cc(CCNC(=O)c2ccc(F)cc2Cl)c2cccnc21,788 s
2,O=C(CN1CCC(COCc2ccccc2)CC1)Nc1ccc2c(c1)OCCO2,605 s
3,COCCCNC(=O)CN1CCN(c2cc(C(=O)O)c3cc(NC(=O)C4CCCC4)ccc3n2)CC1,575 s
4,O=C(Nc1cccc(F)c1)N1CCCC1c1nc(-c2cccc(Cl)c2)no1 (configuration not stated),1080 s
5,CC(C)c1ccc(NC(=O)Cn2ncc3c(c2=O)N(CC2CC2)C(=O)CS3)cc1,934 s
6,Cc1csc(-c2ccc(N3CCN(C(=O)Cc4cccc(Cl)c4)CC3)nc2)n1,896 s
7,Cc1cc(C)c(C)c(S(=O)(=O)N2CCC(F)(c3nc(CC(C)C)no3)CC2)c1C,1410 s
8,COc1ccc(Cl)cc1S(=O)(=O)N1CCc2nn(CC3CC3)c(=O)n2CC1,800 s
9,CC[C@H](C)NC(=O)Cc1nnc(-c2cccc(C)c2)o1,767 s
10,Cc1nn(C)c(=O)c2cc(S(=O)(=O)NCc3ccc(Cl)cc3)cn12,822 s
11,Cc1oc(C2CCN(C(=O)Nc3ccc(Br)cc3)CC2)nc1C(=O)N(C)C,759 s
12,Cc1ccc(-c2nc(-c3ccc4c(c3)ncn4CCN3CCOCC3)no2)cc1C,685 s
13,CSc1ccc(-c2noc(Cn3cnc4c(cnn4-c4ccc(C)c(Cl)c4)c3=O)n2)cc1,1270 s
14,O=C1Nc2ccc(Br)cc2/C1=C/C(=O)c1ccccc1,964 s
15,Cn1ccnc1C(=O)N1CCc2nn(CC3CC3)c(=O)n2CC1,565 s
16,CCCn1cc(CCNC(=O)Nc2cc(Cl)ccc2C)c2cccnc21,863 s
17,Cc1nc2cc(N3CC(C(=O)Nc4ccc(F)cc4C)CC3=O)ccc2o1 (configuration not stated),718 s
18,Cc1[nH]c(C(=O)N2CCCC(C(=O)NCCN3CCCCC3)C2)c(C)c1C(=O)OC(C)C (configuration not stated),634 s
19,CCn1cc(-c2ccccc2)cc1C(=O)NC1CCCC1,1080 s

row,Compound,RP-LC retention time
1,Cn1ccc2cc(S(=O)(=O)N3CCCC(C(=O)NCCCN4CCOCC4)C3)ccc21 (configuration not stated),627 s
2,CN1CCN(CCNC(=O)CCCn2c(=O)c3cccn3c3ccc(F)cc32)CC1,588 s
3,O=C(NC1CC1)c1ccc(-c2ccsc2)nc1,688 s
4,Cc1ccccc1S(=O)(=O)N1CCC(C(=O)NCCc2csc(-c3cccs3)n2)CC1,922 s
5,Cc1cc(N(C)C)n2nc(CN3CCC(Cc4ccccc4)CC3)nc2n1,637 s
6,Cc1oc2c(c1C(=O)Nc1ccc3c(c1)OCO3)C1=NC(C)(C)CN1C=N2,665 s
7,COc1cccc(CNC(=O)c2cn(-c3cc(N4CCOCC4)ncn3)cn2)c1,752 s
8,CN(C(=O)Cn1nc(Cc2ccncc2)c2ccccc2c1=O)C1CCCCC1,640 s
9,CC(C)CNC(=O)CCc1nc2ccccc2n(CC(=O)NCCCc2ccccc2)c1=O,834 s
10,Cc1nc(-c2csc(S(=O)(=O)N3CCC(C(=O)NC(C)Cc4ccco4)CC3)c2)no1 (configuration not stated),843 s
11,CCOC(=O)c1noc2nc(C)nc(NCCc3ccc(C)cc3)c12,1130 s
12,Brc1ccc(C(c2nnc(-c3ccccc3)o2)N2CCN(c3ncccn3)CC2)cc1 (configuration not stated),1170 s
13,CC(C)CN1CCN(C(=O)CCC2CCCN(c3cc(NC4CC4)ncn3)C2)CC1 (configuration not stated),547 s
14,Cn1cc(C(=O)N2CCCCCCNC(=O)[C@@H]3CCC[C@@H]32)cn1,622 s
15,Cc1cc(C)c2c(SC(C)C)nc(N)nc2n1,676 s
16,Cc1cccc(CN2C(=O)CN(S(C)(=O)=O)CC2(C)C(=O)NCc2ccc(F)cc2)c1 (configuration not stated),856 s
17,O=C(Nc1ccc(F)cc1)Nc1c(-c2ccccc2)nc2ccccn12,651 s
18,CCNC(=O)N(CC(=O)N1CCc2sccc2C1COc1ccc(F)cc1)CC1CCCO1 (configuration not stated),856 s

# Source: the METLIN SMRT retention time set (Domingo-Almenara et al. 2019)
